Values quoted from earlier work as cited in patent US9198881B2, “Equine nutritional supplement” (priority 2011, dated 2015).
Read-outs that look alike come from different tables or passages of the source.

System: nitric oxide
Details: humans, 8 weeks of supervised aerobic training, FIGS. 4 and 5

## Glycine Propionyl L-Carnitine Hydrochloride
1.5 grams per day
  nitric oxide levels: statistically significant enhancement
4.5 grams per day
  nitric oxide levels: statistically significant enhancement
